Key:
Assay in all cases: microbe, parasite or virus in culture
Type in all cases: cell-based, HIV-1
[1] = tested on: T332S/V362I/Pr R41G virus; details: Human immunodeficiency virus 1, MT2, read-out: T332S/V362I/pr41G EC50
How it was run: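 Renilla luciferase NL4-3 reporter virus (Gag P373S background) carrying Gag T332S/V362I plus protease R41G, inoculum normalized by luciferase signal, infected MT-2 cells (10,000/well). Compounds 3-fold diluted, 1% DMSO final. After 4–5 days at 37 °C, virus yield measured as Renilla luciferase activity in a multiple-cycle assay.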

[2] = tested on: NLRepRlucP373S recombinant wild type (WT) virus; details: Human immunodeficiency virus 1, MT2, read-out: WT EC50
How it was run: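 MT-2 cells infected with NLRepRlucP373S Renilla luciferase reporter virus (NL4-3, Gag P373S), inocula normalized by luciferase signal; compounds 3-fold serially diluted, 1% DMSO final. Virus yield read by Renilla luciferase after 4-5 days at 37 °C. EC50/EC90 from median effect equation; background = signal at NFV 3 μM.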

gag V370A/ΔT371 virus = details: Human immunodeficiency virus 1, MT2, read-out: V370A/ΔT371 EC50
How it was run: (§1)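 Multiple-cycle assay in MT-2 cells infected with Renilla luciferase NL4-3 (Gag P373S background) carrying site-directed Gag A364V or V370A/ΔT371 changes, inocula normalized by luciferase signal. 10,000 cells/well, 3-fold compound dilutions, 1% DMSO, 4–5 days at 37°C; yield read as Renilla luciferase.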

[3] = tested on: A364V site directed mutant virus; details: Human immunodeficiency virus 1, MT2, read-out: A364V EC50
How it was run: as §1

SMILES: C=C(C)[C@@H]1CC[C@]2(NCC[C@]3(O)CC[C@H](S(C)(=O)=O)CC3)CC[C@]3(C)[C@H](CC[C@@H]4[C@@]5(C)CC=C(C6=CC[C@@](COc7ncccc7C#N)(C(=O)O)CC6)C(C)(C)[C@@H]5CC[C@]43C)[C@@H]12 [Example A4, (S)-1-(((3-cyanopyridin-2-yl)oxy)methyl)-4-((1R,3aS,5aR,5bR,7aR,11aS,11bR,13aR,13bR)-3a-((2-((1r,4S)-1-hydroxy-4-(methylsulfonyl)cyclohexyl)ethyl)amino)-5a,5b,8,8,11a-pentamethyl-1-(prop-1-en-2-yl)-2,3,3a,4,5,5a,5b,6,7,7a,8,11,11a,11b,12,13,13a,13b-octadecahydro-1H-cyclopenta[a]chrysen-9-yl)cyclohex-3-enecarboxylic acid]
- EC50 [1]: 6 nM
- EC50 [2]: 4 nM
- EC50 (gag V370A/ΔT371 virus): 6 nM
- EC50 [3]: 26 nM

SMILES: C=C(C)[C@@H]1CC[C@]2(NCC[C@]3(O)CC[C@@H](S(C)(=O)=O)CC3)CC[C@]3(C)[C@H](CC[C@@H]4[C@@]5(C)CC=C(C6=CC[C@](COc7ncccc7C#N)(C(=O)O)CC6)C(C)(C)[C@@H]5CC[C@]43C)[C@@H]12 [Example A5, (R)-1-(((3-cyanopyridin-2-yl)oxy)methyl)-4-((1R,3aS,5aR,5bR,7aR,11aS,11bR,13aR,13bR)-3a-((2-((1s,4R)-1-hydroxy-4-(methylsulfonyl)cyclohexyl)ethyl)amino)-5a,5b,8,8,11a-pentamethyl-1-(prop-1-en-2-yl)-2,3,3a,4,5,5a,5b,6,7,7a,8,11,11a,11b,12,13,13a,13b-octadecahydro-1H-cyclopenta[a]chrysen-9-yl)cyclohex-3-enecarboxylic acid]
- EC50 [1]: 3 nM
- EC50 [2]: 2 nM
- EC50 (gag V370A/ΔT371 virus): 3 nM
- EC50 [3]: 6 nM

SMILES: C=C(C)[C@@H]1CC[C@]2(NCC[C@]3(O)CC[C@H](S(C)(=O)=O)CC3)CC[C@]3(C)[C@H](CC[C@@H]4[C@@]5(C)CC=C(C6=CC[C@](COc7ncccc7C#N)(C(=O)O)CC6)C(C)(C)[C@@H]5CC[C@]43C)[C@@H]12 [Example A6, (R)-1-(((3-cyanopyridin-2-yl)oxy)methyl)-4-((1R,3aS,5aR,5bR,7aR,11aS,11bR,13aR,13bR)-3a-((2-((1r,4S)-1-hydroxy-4-(methylsulfonyl)cyclohexyl)ethyl)amino)-5a,5b,8,8,11a-pentamethyl-1-(prop-1-en-2-yl)-2,3,3a,4,5,5a,5b,6,7,7a,8,11,11a,11b,12,13,13a,13b-octadecahydro-1H-cyclopenta[a]chrysen-9-yl)cyclohex-3-enecarboxylic acid]
- EC50 [1]: 8 nM
- EC50 [2]: 2 nM
- EC50 (gag V370A/ΔT371 virus): 8 nM
- EC50 [3]: 5 nM

SMILES: C=C(C)[C@@H]1CC[C@]2(NC[C@@H](O)CO)CC[C@]3(C)[C@H](CC[C@@H]4[C@@]5(C)CC=C(C6=CC[C@](COc7ncccc7C#N)(C(=O)O)CC6)C(C)(C)[C@@H]5CC[C@]43C)[C@@H]12 [Example A7, (R)-1-(((3-cyanopyridin-2-yl)oxy)methyl)-4-((1R,3aS,5aR,5bR,7aR,11aS,11bR,13aR,13bR)-3a-(((R)-2,3-dihydroxypropyl)amino)-5a,5b,8,8,11a-pentamethyl-1-(prop-1-en-2-yl)-2,3,3a,4,5,5a,5b,6,7,7a,8,11,11a,11b,12,13,13a,13b-octadecahydro-1H-cyclopenta[a]chrysen-9-yl)cyclohex-3-enecarboxylic acid]
- EC50 [1]: 5 nM
- EC50 [2]: 3 nM
- EC50 (gag V370A/ΔT371 virus): 5 nM
- EC50 [3]: 477 nM

SMILES: C=C(C)[C@@H]1CC[C@]2(NC[C@@H](O)CO)CC[C@]3(C)[C@H](CC[C@@H]4[C@@]5(C)CC=C(C6=CC[C@](COc7ncccc7C(N)=O)(C(=O)O)CC6)C(C)(C)[C@@H]5CC[C@]43C)[C@@H]12 [Example A8, (R)-1-(((3-carbamoylpyridin-2-yl)oxy)methyl)-4-((1R,3aS,5aR,5bR,7aR,11aS,11bR,13aR,13bR)-3a-(((R)-2,3-dihydroxypropyl)amino)-5a,5b,8,8,11a-pentamethyl-1-(prop-1-en-2-yl)-2,3,3a,4,5,5a,5b,6,7,7a,8,11,11a,11b,12,13,13a,13b-octadecahydro-1H-cyclopenta[a]chrysen-9-yl)cyclohex-3-enecarboxylic acid]
- EC50 [1]: 23 nM
- EC50 [2]: 4 nM
- EC50 (gag V370A/ΔT371 virus): 23 nM
- EC50 [3]: 176 nM

SMILES: C=C(C)[C@@H]1CC[C@]2(NC[C@@H](O)COC)CC[C@]3(C)[C@H](CC[C@@H]4[C@@]5(C)CC=C(C6=CC[C@](COc7ncccc7C#N)(C(=O)O)CC6)C(C)(C)[C@@H]5CC[C@]43C)[C@@H]12 [Example A9, (R)-1-(((3-cyanopyridin-2-yl)oxy)methyl)-4-((1R,3aS,5aR,5bR,7aR,11aS,11bR,13aR,13bR)-3a-(((R)-2-hydroxy-3-methoxypropyl)amino)-5a,5b,8,8,11a-pentamethyl-1-(prop-1-en-2-yl)-2,3,3a,4,5,5a,5b,6,7,7a,8,11,11a,11b,12,13,13a,13b-octadecahydro-1H-cyclopentalalchrysen-9-yl)cyclohex-3-enecarboxylic acid]
- EC50 [1]: 12 nM
- EC50 [2]: 3 nM
- EC50 (gag V370A/ΔT371 virus): 12 nM
- EC50 [3]: 300 nM

SMILES: C=C(C)[C@@H]1CC[C@]2(NC[C@H](O)COC)CC[C@]3(C)[C@H](CC[C@@H]4[C@@]5(C)CC=C(C6=CC[C@](COc7ncccc7C#N)(C(=O)O)CC6)C(C)(C)[C@@H]5CC[C@]43C)[C@@H]12 [Example A11, (R)-1-(((3-cyanopyridin-2-yl)oxy)methyl)-4-((1R,3aS,5aR,5bR,7aR,11aS,11bR,13aR,13bR)-3a-(((S)-2-hydroxy-3-methoxypropyl)amino)-5a,5b,8,8,11a-pentamethyl-1-(prop-1-en-2-yl)-2,3,3a,4,5,5a,5b,6,7,7a,8,11,11a,11b,12,13,13a,13b-octadecahydro-1H-cyclopentalalchrysen-9-yl)cyclohex-3-enecarboxylic acid]
- EC50 [1]: 17 nM
- EC50 [2]: 11 nM
- EC50 (gag V370A/ΔT371 virus): 17 nM
- EC50 [3]: 281 nM

SMILES: C=C(C)[C@@H]1CC[C@]2(NC[C@H](O)COC)CC[C@]3(C)[C@H](CC[C@@H]4[C@@]5(C)CC=C(C6=CC[C@](COc7ncccc7C(N)=O)(C(=O)O)CC6)C(C)(C)[C@@H]5CC[C@]43C)[C@@H]12 [Example A12, (R)-1-(((3-carbamoylpyridin-2-yl)oxy)methyl)-4-((1R,3aS,5aR,5bR,7aR,11aS,11bR,13aR,13bR)-3a-(((S)-2-hydroxy-3-methoxypropyl)amino)-5a,5b,8,8,11a-pentamethyl-1-(prop-1-en-2-yl)-2,3,3a,4,5,5a,5b,6,7,7a,8,11,11a,11b,12,13,13a,13b-octadecahydro-1H-cyclopenta[a]chrysen-9-yl)cyclohex-3-enecarboxylic acid]
- EC50 [1]: 59 nM
- EC50 [2]: 2 nM
- EC50 (gag V370A/ΔT371 virus): 59 nM
- EC50 [3]: 69 nM

SMILES: C=C(C)[C@@H]1CC[C@]2(NC[C@@](C)(O)CO)CC[C@]3(C)[C@H](CC[C@@H]4[C@@]5(C)CC=C(C6=CC[C@](COc7ncccc7C#N)(C(=O)O)CC6)C(C)(C)[C@@H]5CC[C@]43C)[C@@H]12 [Example A13, (R)-1-(((3-cyanopyridin-2-yl)oxy)methyl)-4-((1R,3aS,5aR,5bR,7aR,11aS,11bR,13aR,13bR)-3a-(((R)-2,3-dihydroxy-2-methylpropyl)amino)-5a,5b,8,8,11a-pentamethyl-1-(prop-1-en-2-yl)-2,3,3a,4,5,5a,5b,6,7,7a,8,11,11a,11b,12,13,13a,13b-octadecahydro-1H-cyclopentalalchrysen-9-yl)cyclohex-3-enecarboxylic acid]
- EC50 [1]: 27 nM
- EC50 [2]: 2 nM
- EC50 (gag V370A/ΔT371 virus): 27 nM
- EC50 [3]: 831 nM

SMILES: C=C(C)[C@@H]1CC[C@]2(NC[C@@](C)(O)CO)CC[C@]3(C)[C@H](CC[C@@H]4[C@@]5(C)CC=C(C6=CC[C@](COc7ncccc7C(N)=O)(C(=O)O)CC6)C(C)(C)[C@@H]5CC[C@]43C)[C@@H]12 [Example A14, (R)-1-(((3-carbamoylpyridin-2-yl)oxy)methyl)-4-((1R,3aS,5aR,5bR,7aR,11aS,11bR,13aR,13bR)-3a-(((R)-2,3-dihydroxy-2-methylpropyl)amino)-5a,5b,8,8,11a-pentamethyl-1-(prop-1-en-2-yl)-2,3,3a,4,5,5a,5b,6,7,7a,8,11,11a,11b,12,13,13a,13b-octadecahydro-1H-cyclopenta[a]chrysen-9-yl)cyclohex-3-enecarboxylic acid]
- EC50 [1]: 110 nM
- EC50 [2]: 5 nM
- EC50 (gag V370A/ΔT371 virus): 110 nM
- EC50 [3]: 114 nM

SMILES: C=C(C)[C@@H]1CC[C@]2(NC[C@@H](O)C(=O)O)CC[C@]3(C)[C@H](CC[C@@H]4[C@@]5(C)CC=C(C6=CC[C@](COc7ncccc7C#N)(C(=O)O)CC6)C(C)(C)[C@@H]5CC[C@]43C)[C@@H]12 [Example A15, (R)-4-((1R,3aS,5aR,5bR,7aR,11aS,11bR,13aR,13bR)-3a-(((R)-2-carboxy-2-hydroxyethyl)amino)-5a,5b,8,8,11a-pentamethyl-1-(prop-1-en-2-yl)-2,3,3a,4,5,5a,5b,6,7,7a,8,11,11a,11b,12,13,13a,13b-octadecahydro-1H-cyclopenta[a]chrysen-9-yl)-1-(((3-cyanopyridin-2-yl)oxy)methyl)cyclohex-3-enecarboxylic acid]
- EC50 [1]: 10 nM
- EC50 [2]: 3 nM
- EC50 (gag V370A/ΔT371 virus): 10 nM
- EC50 [3]: 794 nM

Reference: patent US10421774B2 (priority 2016, dated 2019)
